Experiments:
[1] = Liquid; for mass density: 96 kPa, Vibrating tube method; for vapor or sublimation pressure: Index of refraction calibration data
[2] = refractive index (Na D-line) (dimensionless); xn = mol fraction of the nth substance listed; conditions: 298.15 K; 96 kPa; Liquid; Standard Abbe refractometry; x2 = 0
[3] = xn = mol fraction of the nth substance listed; conditions: 96 kPa, Liquid, Vibrating tube method, x2 = 0

CCCCC=O [pentanal]
[1]
Conditions | mass density [kg/m3] | vapor or sublimation pressure [kPa]
288.15 K | 814.15 | –
293.14 K | 809.45 | –
298.14 K | 804.73 | –
298.15 K | 804.73 | –
303.15 K | 799.97 | –
308.15 K | 795.17 | –
313.14 K | 790.33 | –
318.14 K | 785.46 | –
323.14 K | 780.55 | –
376.2 K | – | 101.3

CCOS(=O)(=O)[O-].CCn1cc[n+](C)c1 [1-ethyl-3-methylimidazolium ethyl sulfate]
[1]
Conditions | mass density [kg/m3]
288.16 K | 1243.72
293.16 K | 1239.95
298.14 K | 1236.86
298.15 K | 1236.86
303.14 K | 1233.58
308.15 K | 1229.9
313.15 K | 1226.73
318.16 K | 1223.17
323.15 K | 1219.99

CCC=O [propanal]
[1]
Conditions | mass density [kg/m3] | vapor or sublimation pressure [kPa]
288.14 K | 807.26 | –
293.15 K | 801.06 | –
298.15 K | 794.85 | –
303.15 K | 788.72 | –
308.16 K | 782.55 | –
313.15 K | 776.53 | –
321.2 K | – | 101.3

CCOS(=O)(=O)[O-].CCn1cc[n+](C)c1 [1-ethyl-3-methylimidazolium ethyl sulfate] + CCC=O
Conditions | refractive index
[2] | 1.4817

[3]
Conditions | mass density [kg/m3]
288.16 K | 1243.72
293.16 K | 1239.95
298.14 K | 1236.86
303.14 K | 1233.58
308.15 K | 1229.9
313.15 K | 1226.73

CCOS(=O)(=O)[O-].CCn1cc[n+](C)c1 [1-ethyl-3-methylimidazolium ethyl sulfate] + CCCCC=O
Conditions | refractive index
[2] | 1.4817

[3]
Conditions | mass density [kg/m3]
288.16 K | 1243.72
293.16 K | 1239.95
298.14 K | 1236.86
303.14 K | 1233.58
308.15 K | 1229.9
313.15 K | 1226.73
318.16 K | 1223.17
323.15 K | 1219.99
